Experiments:
[1] = Inhibition of trypsin
Prothrombin = Prothrombin (Homo sapiens, UniProt P00734)

| IC50 [1] [µg/mL] | IC50 (Prothrombin) [µM] | Structure (SMILES) |
| --- | --- | --- |
| 27 | 19.6 | CC1(C)CCC[C@H]2[C@H]1CC[C@@]1(C)[C@@H]2CC/C(=C\OS(=O)(=O)[O-])[C@@H]1CCc1ccoc1.[Na+] |
| 23 | 47.7 | CC1(C)CCC[C@H]2[C@H]1CC[C@@]1(C)[C@@H]2CC/C(=C\OS(=O)(=O)[O-])[C@@H]1CCc1ccoc1.C[N+](C)=C(N)N |
| 2 | 62.6 | C/C(=C\Cc1cc(O)ccc1O)CCC[C@@H](C)[C@@H](C[C@@H]1CCC[C@H]2C(C)(C)CCC[C@@]12C)OS(=O)(=O)[O-].[Na+] [HALISULPHATESODIUM] |

Source: ChEMBL document CHEMBL1141805, “Isolation of 1-Methylherbipoline Salts of Halisulfate-1 and of Suvanine as Serine Protease Inhibitors from a Marine Sponge, Coscinoderma mathewsi” (J Nat Prod, 1998)
